Results reported in patent US20200353052A1, “COMPOSITION FOR PROMOTING GOBLET CELL PROLIFERATION OR MUCIN SECRETION COMPRISING THYMOSIN BETA 4 OR DERIVATIVE THEREOF AS ACTIVE INGREDIENT” (G-TREEBNT CO., LTD., priority 2017, published 2020).

Key:
Assay type in all cases: in vivo, NOD.B10-H2b mice
[1] = system: mucin secreted in the conjunctiva; assay: Amount of mucin secreted by Alcian blue staining of eyeball sections from dry eye-induced mice after eye drop instillation; conditions: eye drop instillation for 10 days; Alcian blue staining photographs (FIG. 4)
Protocol: (§1) 12-week-old or older NOD.B10-H2b mice were kept in a chamber with a humidity of 40% or lower for 10 days. Scopolamine hydrobromide (Sigma-Aldrich, SLBR8568V) at a concentration of 0.5 mg/0.2 ml was injected subcutaneously into the thigh 4 times (9 am, 12 pm, 3 pm, and 6 pm) daily while the mice were kept in the chamber. After 10 days, tear secretion volume and corneal smoothness score were measured, and only those mice with a tear secretion volume of 0.06 μl or lower and a corneal smoothness score of 2 or lower were selected.
(§2) For each test drug, eye drop instillation was performed as follows: Vehicle, 4 times a day; Diquas (Santen Pharmaceutical Co., Ltd., Japan), 6 times a day; Xiidra (Shire plc, USA), twice a day; and GBT-201, twice or 4 times a day. After 10 days, each group of mice was sacrificed, the eyeballs were collected, and tissue immunostaining and molecular biological analysis were performed (FIG. 1).
In order to identify whether thymosin beta 4 results in an increase in amount of mucin secreted in the conjunctiva, the eyeballs of the mice sacrificed in Experimental Example 1 were collected and assessed through Alcian blue staining.
Specifically, the eyeballs of the mice sacrificed in Experimental Example 1 were collected, and the eyes and adnexa, which had been fixed in formalin for 3 days, were cut into 6 μm sections using a microtome. […]

Muc1 = assay: Immunofluorescence staining of Muc1 in cornea and conjunctiva of dry eye-induced mice; conditions: corneal and conjunctival epithelium; eye drop instillation for 10 days; immunofluorescence (FIGS. 6 and 7)
Protocol: as §1
(§3) For each test drug, eye drop instillation was performed as follows: Vehicle, 4 times a day; Diquas (Santen Pharmaceutical Co., Ltd., Japan), 6 times a day; Xiidra (Shire plc, USA), twice a day; and GBT-201, twice or 4 times a day. After 10 days, each group of mice was sacrificed, the eyeballs were collected, and tissue immunostaining and molecular biological analysis were performed (FIG. 1). […]
(§4) Specifically, the eyeballs of the mice sacrificed in Experimental Example 1 were collected, and the eyes and adnexa, which had been fixed in formalin for 3 days, were cut into 6 μm sections using a microtome. […] The mounted slide was photographed using a fluorescence microscope (Leica DM2500, Leica Microsystems GmbH, Wetzlar, Germany).

Muc5AC = assay: Immunofluorescence staining of Muc5AC in cornea and conjunctiva of dry eye-induced mice; conditions: eye drop instillation for 10 days, immunofluorescence (FIGS. 6 and 7)
Protocol: as §1, §3, §4

Muc4 = assay: Immunofluorescence staining of Muc4 in cornea and conjunctiva of dry eye-induced mice; conditions: corneal and conjunctival epithelium; eye drop instillation for 10 days; immunofluorescence (FIGS. 6 and 7)
Protocol: as §1, §3, §4

Muc16 = assay: Immunofluorescence staining of Muc16 in cornea and conjunctiva of dry eye-induced mice; conditions: corneal and conjunctival epithelium; eye drop instillation for 10 days; immunofluorescence (FIGS. 6 and 7)
Protocol: as §1, §3, §4

[2] = system: goblet cells in the conjunctiva; assay: Goblet cell number by PAS staining of eyeball sections from dry eye-induced mice after eye drop instillation; conditions: eye drop instillation for 10 days; PAS staining photographs (FIG. 2)
Protocol: as §1, §2
In order to identify whether thymosin beta 4 promotes proliferation of goblet cells, which are cells that secrete mucin in the conjunctiva, the eyeballs of the mice sacrificed in Experimental Example 1 were collected and assessed through periodicacid-Schiff (PAS) staining. […]

thymosin beta 4 (SDKPDMAEIEKFDKSKLKKTETQEKNPLPSKETIEQEKQAGES; thymosin beta 4; listed as Homo sapiens)
increased: amount of mucin secreted as compared with the DS D10 control group, visually identified [1] | expression level of Muc1 as compared with the DS D10 control group, visually identified (Muc1) | expression level of Muc5AC as compared with the DS D10 control group, visually identified (Muc5AC) | expression level of Muc4 as compared with the DS D10 control group, visually identified (Muc4) | expression level of Muc16 as compared with the DS D10 control group, visually identified (Muc16) | number of goblet cells as compared with the DS D10 control group, visually identified [2]
